Ends that are not written are not given here. Peptide text beside a SMILES is read from it.
Experiments:
[1] = tested on: tissue of medial septum nuclei; experiment: neurotrophic activity: acceleration of acetylcholine synthesis in medial septum nuclei tissue (method of Ojika et al.); assay type: cell-based; conditions: qualitative statement, compared with rat-derived HCNP; no figures given
Description: The neurotrophic activity (also called neurotrophic factor activity) refers to, for example, an action of regulating differentiation and maturation of neuronal cells, namely, an action of accelerating the acetylcholine synthesis in the tissue of medial septum nuclei which is rich in cholinergic neurons.
The human-derived neurotrophic peptide or its derivatives of the present invention can regulate differentiation and maturation of neuronal cells. That is, the neurotrophic peptide and derivatives thereof accelerate the acetylcholine synthesis in the tissue of medial septum nuclei. The biological activity can be determined by the method of Ojika, K., et al. (Reference 66).

[2] = tested on: tissue of medial septum nuclei; conditions: rat medial septum nuclei acetylcholinergic neuron; Reference 1; cited from earlier work

Compound	neurotrophic activity [1]	production of acetylcholine [2]
CC(C)C[C@H](NC(=O)[C@@H]1CCCN1C(=O)CNC(=O)[C@H](CO)NC(=O)[C@H](Cc1c[nH]c2ccccc12)NC(=O)[C@H](CCCCN)NC(=O)[C@H](CO)NC(=O)[C@H](CC(C)C)NC(=O)[C@H](CC(=O)O)NC(=O)[C@@H](NC(=O)[C@@H]1CCCN1)C(C)C)C(=O)O [hHCNP] (H-PVDLSKWSGPL-OH)	neurotrophic activity similar to rat-derived HCNP was noted	–
AADISQWAGPL [HCNP, Hippocampal cholinergic neurotrophic peptide of 11 amino acid residues isolated from hippocampal tissue of neonatal rat by Ojika et al]	–	enhances production of acetylcholine

Source: patent EP0511816B1, “Neurotrophic peptide derivative” (SUMITOMO PHARMACEUTICALS COMPANY, LIMITED, priority 1991, dated 1999)
